Converted amounts (≈) assume the structure as drawn.
Tests used:
Test in all cases: Minimum Inhibitory Concentration (MIC), agar dilution, standard strains
[1] = test system: S. aureus 77; assay type: cell-based, Staphylococcus aureus; conditions: Table 1, Mueller-Hinton agar, 37° C., 20 hours; for MIC: Staphylococcus aureus, 77, read-out: Minimum Inhibitory Concentration (MIC), S. aureus 77
Method: (§1) Minimum Inhibitory Concentration (MIC)
(§2) The effectiveness of the compound according to the present invention was determined by obtaining Minimum Inhibitory Concentration (MIC) of the compounds prepared by the above Examples (I-1 to I-33) and vancomycin, which is the known compound having a potent activity against gram-positive strains, as the control drug against the standard strains. Specifically, Minimum Inhibitory Concentration was obtained by diluting the test material with a double dilution method, dispersing them in Mueller-Hinton agar medium, inoculating each of the test strain having 10^7 cfu (colny forming unit) in an amount of 2:1 to the medium and then incubating them at 37° C. for 20 hours.

[2] = test system: S. aureus 241; assay type: cell-based, Staphylococcus aureus; conditions: Table 1, Mueller-Hinton agar, 37° C., 20 hours; for MIC: Staphylococcus aureus, 241, read-out: Minimum Inhibitory Concentration (MIC), S. aureus 241
Method: as §1, §2

[3] = test system: S. epidermidis R005; assay type: cell-based; conditions: Table 1, Mueller-Hinton agar, 37° C., 20 hours; for MIC: Staphylococcus epidermidis, R005, read-out: Minimum Inhibitory Concentration (MIC), S. epidermidis R005
Method: as §1, §2

[4] = test system: E. faecalis L239; assay type: cell-based; conditions: Table 1, Mueller-Hinton agar, 37° C., 20 hours; for MIC: Enterococcus faecalis, L239, read-out: Minimum Inhibitory Concentration (MIC), E. faecalis L239
Method: as §1, §2

[5] = test system: Staphylococcus aureus giorgio; assay type: cell-based; conditions: Table 1, Mueller-Hinton agar, 37° C., 20 hours; for MIC: Staphylococcus aureus, read-out: Minimum Inhibitory Concentration (MIC), Staphylococcus aureus giorgio
Method: as §1, §2

MIC [1] [µg/mL]	MIC [2] [µg/mL]	MIC [3] [µg/mL]	MIC [4] [µg/mL]	MIC [5] [ng/mL]	Minimum Inhibitory Concentration (MIC), S. aureus 77 [1]	Minimum Inhibitory Concentration (MIC), S. aureus 241 [2]	Minimum Inhibitory Concentration (MIC), S. epidermidis R005 [3]	Minimum Inhibitory Concentration (MIC), E. faecalis L239 [4]	Minimum Inhibitory Concentration (MIC), Staphylococcus aureus giorgio [5]	Structure (SMILES)
0.063 (≈ 0.104 µM)	1 (≈ 1.65 µM)	0.063 (≈ 0.104 µM)	0.25 (≈ 0.413 µM)	< 8	–	–	–	–	–	Nc1cc(SCSC2=C(C(=O)O)N3C(=O)[C@@H](NC(=O)CSc4cc(Cl)ccc4Cl)[C@H]3SC2)nc(N)n1 [Example I-1, (6R,7R)-3-({[(2,6-diamino-4-pyrimidinyl)sulfanyl]methyl}sulfanyl)-7-({2-[(2,5-dichlorophenyl)sulfanyl]acetyl}amino)-8-oxo-5-thia-1-azabicyclo[4.2.0]oct-2-ene-2-carboxylic acid]
0.13 (≈ 0.214 µM)	1 (≈ 1.65 µM)	0.063 (≈ 0.104 µM)	0.25 (≈ 0.412 µM)	< 8	–	–	–	–	–	Nc1nc(O)cc(SCSC2=C(C(=O)O)N3C(=O)[C@@H](NC(=O)CSc4cc(Cl)ccc4Cl)[C@H]3SC2)n1 [Example I-2, (6R,7R)-3-({[(2-amino-6-hydroxy-4-pyrimidinyl)sulfanyl]methyl}sulfanyl)-7-({2-[(2,5-dic hlorophenyl)sulfanyl]acetyl}amino)-8-oxo-5-thia-1-azabicyclo[4.2.0]oct-2-ene-2-carboxylic acid]
0.25 (≈ 0.412 µM)	8 (≈ 13.2 µM)	0.13 (≈ 0.214 µM)	0.5 (≈ 0.824 µM)	< 8	–	–	–	–	–	Nc1nc(O)cc(SCSC2=C(C(=O)O)N3C(=O)[C@@H](NC(=O)CSc4c(Cl)cccc4Cl)[C@H]3SC2)n1 [Example I-3, (6R,7R)-3-({[(2-amino-6-hydroxy-4-pyrimidinyl)sulfanyl]methyl}sulfanyl)-7-({2-[(2,6-dic hlorophenyl)sulfanyl]acetyl}amino)-8-oxo-5-thia-1-azabicyclo[4.2.0]oct-2-ene-2-carboxylic acid]
0.25 (≈ 0.412 µM)	4 (≈ 6.59 µM)	0.25 (≈ 0.412 µM)	0.5 (≈ 0.824 µM)	< 8	–	–	–	–	–	Nc1cc(SCSC2=C(C(=O)O)N3C(=O)[C@@H](NC(=O)CSc4cc(Cl)ccc4Cl)[C@H]3SC2)nc(O)n1 [Example I-4, (6R,7R)-3-({[(6-amino-2-hydroxy-4-pyrimidinyl)sulfanyl]methyl}sulfanyl)-7-({2-[(2,5-dic hlorophenyl)sulfanyl]acetyl}amino)-8-oxo-5-thia-1-azabicyclo[4.2.0]oct-2-ene-2-carboxylic acid]
–	–	–	–	–	0.5 :g/ml	8 :g/ml	0.5 :g/ml	1 :g/ml	0.016 :g/ml	Nc1cc(SCSC2=C(C(=O)O)N3C(=O)[C@@H](NC(=O)CNc4cc(Cl)ccc4Cl)[C@H]3SC2)nc(N)n1 [Example I-5]
–	–	–	–	–	0.5 :g/ml	8 :g/ml	0.5 :g/ml	4 :g/ml	0.031 :g/ml	CN(CC(=O)N[C@@H]1C(=O)N2C(C(=O)O)=C(SCSc3cc(N)nc(N)n3)CS[C@H]12)c1cc(Cl)ccc1Cl [Example I-6, (6R,7R)-3-({[(2,6-diamino-4-pyrimidinyl)sulfanyl]methyl}sulfanyl)-7-({2-[2,5-dichloro(methyl)anilino]acetyl}amino)-8-oxo-5-thia-1-azabicyclo[4.2.0]oct-2-ene-2-carboxylic acid]
–	–	–	–	–	0.13 :g/ml	2 :g/ml	0.063 :g/ml	0.13 :g/ml	<0.008 :g/ml	Nc1cc[n+](N)c(SCSC2=C(C(=O)O)N3C(=O)[C@@H](NC(=O)CSc4cc(Cl)ccc4Cl)[C@H]3SC2)n1 [Example I-7, 1,4-diamino-2-[({[(6R,7R)-2-carboxy-7-({2-[(2,5-dichlorophenyl)sulfanyl]ac-etyl}amino)-8-oxo-5-thia-1-azabicyclo[4.2.0]oct-2-en-3-yl)sulfanyl}methyl)sulfanyl]pyri-midin-1-ium]
